Measured values from patent US4921850A, “3-propenylcephem derivative” (Eisai Co., Ltd., priority 1986, dated 1990).
Converted amounts (≈) assume the structure as drawn. Like-named read-outs stand apart in the source and are kept apart here.

What was measured:
Kleb. pneumoniae EK-6 = test: Anti-bacterial activity (MIC), agar dilution; format: cell-based; conditions: Kleb. pneumoniae EK-6, agar dilution, about 10^6 CFU/ml, 18 hours, 37° C.
Procedure, shortened: (§1)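 Overnight Mueller-Hinton broth cultures were diluted to about 10^6 CFU/ml and spotted onto Mueller-Hinton agar plates carrying twofold serial dilutions of antibiotic. After 18 hours at 37° C, MIC (μg/ml) was determined by agar dilution.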

Escher. coli NIHJ = test: Anti-bacterial activity (MIC), agar dilution; format: cell-based
Procedure, shortened: as §1

Pseud. aeruginosa EP-01 = test: Anti-bacterial activity (MIC), agar dilution; format: cell-based
Procedure, shortened: as §1

[1] = tested on: Morganella morganii EP-14; test: Anti-bacterial activity (MIC), agar dilution; format: cell-based; conditions: about 10^6 CFU/ml, 37° C.
Procedure, shortened: as §1

Ser. marcescens ES-75 = test: Anti-bacterial activity (MIC), agar dilution; format: cell-based; conditions: Ser. marcescens ES-75, agar dilution, about 10^6 CFU/ml, 18 hours, 37° C.
Procedure, shortened: as §1

Staph. aureus 209-P = test: Anti-bacterial activity (MIC), agar dilution; format: cell-based; conditions: Staph. aureus 209-P, agar dilution, about 10^6 CFU/ml, 18 hours, 37° C.
Procedure, shortened: as §1

in vivo = conditions: read-out: values of acute toxicity
Text: (1) Acute toxicity in mouse:
The compounds according to this invention dissolved in a physiological saline solution were intravenously dosed to five ICR male 6 weeks-old mouse.

[2] = intravenous, physiological saline solution, five ICR male 6 weeks-old mouse
[3] = Klebsiella pneumoniae, EK6, 18 h, read-out: MIC
[4] = Escherichia coli, 18 h, Escher. coli NIHJ, agar dilution, about 10^6 CFU/ml, 18 hours, 37° C., read-out: MIC
[5] = Pseudomonas aeruginosa, EP01, 18 h, Pseud. aeruginosa EP-01, agar dilution, about 10^6 CFU/ml, 18 hours, 37° C., read-out: MIC
[6] = Morganella morganii, EP14, 18 h, read-out: MIC
[7] = Serratia marcescens, ES75, 18 h, read-out: MIC
[8] = Staphylococcus aureus, 209P, 18 h, read-out: MIC

Row | Structure (SMILES) | MIC (Kleb. pneumoniae EK-6) | MIC (Escher. coli NIHJ; Escher. coli NIHJ, agar dilution, about 10^6 CFU/ml, 18 hours, 37° C.) | MIC (Pseud. aeruginosa EP-01; Pseud. aeruginosa EP-01, agar dilution, about 10^6 CFU/ml, 18 hours, 37° C.) | MIC ([1]; 18 hours) | MIC (Ser. marcescens ES-75) | MIC (Staph. aureus 209-P) | LD50 (in vivo; [2]) | MIC (Kleb. pneumoniae EK-6; [3]) | MIC (Escher. coli NIHJ; [4]) | MIC (Pseud. aeruginosa EP-01; [5]) | MIC [1, 6] | MIC (Ser. marcescens ES-75; [7]) | MIC (Staph. aureus 209-P; [8]) | LD50 (in vivo; mouse, iv) | MIC (Escher. coli NIHJ; Escherichia coli, 18 h) | MIC (Pseud. aeruginosa EP-01; Pseudomonas aeruginosa, EP01, 18 h)
1 | Nc1nc(/C(=N/OCF)C(=O)N[C@@H]2C(=O)N3C(C(=O)[O-])=C(/C=C/C[N+]4(CCO)C[C@H](O)C[C@H]4CO)CS[C@H]23)ns1 (single isomer, unassigned) [Example 7-2, 7β-[2-(5-Amino-1,2,4-thiadiazol-3-yl)-(Z)-2-fluoromethoxyiminoacetamido]-3-[(E)-3-[4R-hydroxy-1-(2-hydroxyethyl)-2S-hydroxymethyl-1-pyrrolidinio]-1-propen-1-yl]-3-cephem-4-carboxylate] | ≤ 0.025 µg/mL | ≤ 0.025 µg/mL | 0.8 µg/mL (≈ 1.33 µM) | ≤ 0.025 µg/mL | ≤ 0.025 µg/mL | 0.2 µg/mL (≈ 0.332 µM) | > 2000 mg/kg | – | – | – | – | – | – | – | – | –
2 | NC(=O)C[N+]1(C/C=C/C2=C(C(=O)[O-])N3C(=O)[C@@H](NC(=O)/C(=N\OCF)c4nsc(N)n4)[C@H]3SC2)CCC(O)CC1 (stereo partly drawn) [Example 11, 7β-[2-(5-Amino-1,2,4-thiadiazol-3-yl)-(Z)-2-fluoromethoxyiminoacetamido]-3-[(E)-3-(1-carbamoylmethyl-4-hydroxy-1-piperidinio)-1-propen-1-yl]-3-cephem-4-carboxylate] | – | – | – | – | – | – | > 2000 mg/kg | ≤ 0.025 µg/mL | ≤ 0.025 µg/mL | 0.8 µg/mL (≈ 1.34 µM) | ≤ 0.025 µg/mL | ≤ 0.025 µg/mL | 0.4 µg/mL (≈ 0.668 µM) | – | – | –
3 | C[N+](C)(C/C=C/C1=C(C(=O)[O-])N2C(=O)[C@@H](NC(=O)/C(=N\OCF)c3nsc(N)n3)[C@H]2SC1)[C@H](CO)C(N)=O [Example 5, 7β-[2-(5-Amino-1,2,4-thiadiazol-3-yl)-(Z)-2-fluoromethoxyiminoacetamido]-3-[(E)-3-[(1R-carbamoyl-2-hydroxyethyl)dimethylammonio]-1-propen-1-yl]-3-cephem-4-carboxylate] | – | – | – | – | – | – | > 2000 mg/kg | ≤ 0.025 µg/mL | ≤ 0.025 µg/mL | 0.8 µg/mL (≈ 1.4 µM) | ≤ 0.025 µg/mL | ≤ 0.025 µg/mL | 0.2 µg/mL (≈ 0.349 µM) | – | – | –
4 | C[N+]1(C/C=C/C2=C(C(=O)[O-])N3C(=O)[C@@H](NC(=O)/C(=N\OCF)c4nsc(N)n4)[C@H]3SC2)CCN(S(=O)(=O)O)CC1 [Example 10, 7β-[2-(5-Amino-1,2,4-thiadiazol-3-yl)-(Z)-2-fluoromethoxyiminoacetamido]-3-[(E)-3-(1-methyl-4-sulfo-1-piperazinio)-1-propen-1-yl]-3-cephem-4-carboxylate] | – | – | – | – | – | – | > 2000 mg/kg | ≤ 0.025 µg/mL | ≤ 0.025 µg/mL | 1.56 µg/mL (≈ 2.51 µM) | ≤ 0.025 µg/mL | ≤ 0.025 µg/mL | 0.8 µg/mL (≈ 1.29 µM) | – | – | –
5 | C[N+]1(C/C=C/C2=C(C(=O)[O-])N3C(=O)[C@@H](NC(=O)/C(=N\OCF)c4nsc(N)n4)[C@H]3SC2)CCN(C(N)=O)CC1 [Example 121, 7β-[2-(5-Amino-1,2,4-thiadiazol-3-yl)-(Z)-2-fluoromethoxyiminoacetamido]-3-[(E)-3-(1-methyl-4-carbamoyl-1-piperazinio)-1-propen-1-yl]-3-cephem-4-carboxylate] | – | – | – | – | – | – | > 2000 mg/kg | ≤ 0.025 µg/mL | ≤ 0.025 µg/mL | 0.8 µg/mL (≈ 1.37 µM) | ≤ 0.025 µg/mL | 0.1 µg/mL (≈ 0.171 µM) | 0.2 µg/mL (≈ 0.343 µM) | – | – | –
6 | C[N+](C)(C/C=C/C1=C(C(=O)[O-])N2C(=O)[C@@H](NC(=O)/C(=N\OCC#N)c3nsc(N)n3)[C@H]2SC1)CC(N)=O [Example 155] | – | – | – | – | – | – | > 2000 mg/kg | 0.05 µg/mL (≈ 0.091 µM) | 0.1 µg/mL (≈ 0.182 µM) | 1.56 µg/mL (≈ 2.84 µM) | 0.1 µg/mL (≈ 0.182 µM) | 0.2 µg/mL (≈ 0.364 µM) | 0.4 µg/mL (≈ 0.728 µM) | – | – | –
7 | C[N+](C)(C/C=C/C1=C(C(=O)[O-])N2C(=O)[C@@H](NC(=O)/C(=N\OCC#N)c3nsc(N)n3)[C@H]2SC1)[C@@H](CO)C(N)=O [Example 145, 7β-[2-(5-Amino-1,2,4-thiadiazol-3-yl)-(Z)-2-cyanomethoxyiminoacetamido]-3-[(E)-3-[(1S-carbamoyl-2-hydroxyethyl)dimethylammonio]-1-propen-1-yl]-3-cephem-4-carboxylate] | – | – | – | – | – | – | > 2000 mg/kg | 0.1 µg/mL (≈ 0.173 µM) | 0.2 µg/mL (≈ 0.345 µM) | 1.56 µg/mL (≈ 2.69 µM) | 0.1 µg/mL (≈ 0.173 µM) | 0.1 µg/mL (≈ 0.173 µM) | 0.4 µg/mL (≈ 0.69 µM) | – | – | –
8 | C[N@@+]1(C/C=C/C2=C(C(=O)[O-])N3C(=O)[C@@H](NC(=O)/C(=N\OCC#N)c4nsc(N)n4)[C@H]3SC2)C[C@H](O)C[C@@H]1CO [Example 146, 7β-[2-(5-Amino-1,2,4-thiadiazol-3-yl)-(Z)-2-cyanomethoxyiminoacetamido]-3-[(E)-3-(1-methyl-2R-hydroxymethyl-4R-hydroxy-1-pyrrolidinio)-1-propen-1-yl]-3-cephem-4-carboxylate] | – | – | – | – | – | – | – | 0.05 µg/mL (≈ 0.0864 µM) | 0.1 µg/mL (≈ 0.173 µM) | 1.56 µg/mL (≈ 2.7 µM) | 0.05 µg/mL (≈ 0.0864 µM) | 0.05 µg/mL (≈ 0.0864 µM) | 0.4 µg/mL (≈ 0.691 µM) | > 2000 mg/kg | – | –
9 | CC[N+](CC)(C/C=C/C1=C(C(=O)[O-])N2C(=O)[C@@H](NC(=O)/C(=N\OCF)c3nsc(N)n3)[C@H]2SC1)CC(N)=O [Example 96] | – | – | – | – | – | – | > 2000 mg/kg | ≤ 0.025 µg/mL | ≤ 0.025 µg/mL | 0.8 µg/mL (≈ 1.4 µM) | ≤ 0.025 µg/mL | ≤ 0.025 µg/mL | 0.2 µg/mL (≈ 0.35 µM) | – | – | –
10 | C[C@@H](C(N)=O)[N+](C)(C)C/C=C/C1=C(C(=O)[O-])N2C(=O)[C@@H](NC(=O)/C(=N\OCF)c3nsc(N)n3)[C@H]2SC1 [Example 3-1] | – | – | – | – | – | – | > 2000 mg/kg | ≤ 0.025 µg/mL | ≤ 0.025 µg/mL | 0.8 µg/mL (≈ 1.44 µM) | ≤ 0.025 µg/mL | 0.05 µg/mL (≈ 0.0898 µM) | 0.2 µg/mL (≈ 0.359 µM) | – | – | –
11 | NC(=O)C[N+]1(C/C=C/C2=C(C(=O)[O-])N3C(=O)[C@@H](NC(=O)/C(=N\OCF)c4nsc(N)n4)[C@H]3SC2)CCC(O)C1 (stereo partly drawn) [Example 9-1, 7β-[2-(5-Amino-1,2,4-thiadiazol-3-yl)-(Z)-2-fluoromethoxyiminoacetamido]-3-[(E)-3-(1-carbamoylmethyl-3-hydroxy-1-pyrrolidinio)-1-propen-1-yl]-3-cephem-4-carboxylate] | – | – | – | – | – | – | > 2000 mg/kg | ≤ 0.025 µg/mL | ≤ 0.025 µg/mL | 0.8 µg/mL (≈ 1.37 µM) | ≤ 0.025 µg/mL | ≤ 0.025 µg/mL | 0.4 µg/mL (≈ 0.684 µM) | – | – | –
12 | C[N+]1(C/C=C/C2=C(C(=O)[O-])N3C(=O)[C@@H](NC(=O)/C(=N\OCF)c4nsc(N)n4)[C@H]3SC2)C[C@H](O)C[C@@H]1CO (single isomer, unassigned) [Example 6-1, 7β-[2-(5-Amino-1,2,4-thiadiazol-3-yl)-(Z)-2-fluoromethoxyiminoacetamido]-3-[(E)-3-(4R-hydroxy-2R-hydroxymethyl-1-methyl-1-pyrrolidinio)-1-propen-1-yl]-3-cephem-4-carboxylate] | – | – | – | – | – | – | – | ≤ 0.025 µg/mL | 0.05 µg/mL (≈ 0.0875 µM) | 0.8 µg/mL (≈ 1.4 µM) | ≤ 0.025 µg/mL | ≤ 0.025 µg/mL | 0.2 µg/mL (≈ 0.35 µM) | > 2000 mg/kg | – | –
13 | NC(=O)C1CC[N+](C/C=C/C2=C(C(=O)[O-])N3C(=O)[C@@H](NC(=O)/C(=N\OCF)c4nsc(N)n4)[C@H]3SC2)(CCO)CC1 (single isomer, unassigned) [Example 2-1, 7β-[2-(5-Amino-1,2,4-thiadiazol-3-yl)-(Z)-2-fluoromethoxyiminoacetamido]-3-[(E)-3-[1-(2-hydroxyethyl)-4-carbamoyl-1-piperidinio]-1-propen-1-yl]-3-cephem-4-carboxylate] | – | – | – | – | – | – | > 2000 mg/kg | 0.05 µg/mL (≈ 0.0816 µM) | – | – | 0.05 µg/mL (≈ 0.0816 µM) | 0.05 µg/mL (≈ 0.0816 µM) | 0.4 µg/mL (≈ 0.653 µM) | – | 0.05 µg/mL (≈ 0.0816 µM) | 1.56 µg/mL (≈ 2.55 µM)
14 | CC(=O)C[N+](C)(C)C/C=C/C1=C(C(=O)[O-])N2C(=O)[C@@H](NC(=O)/C(=N\OCC#N)c3nsc(N)n3)[C@H]2SC1 [Example 154] | – | – | – | – | – | – | > 2000 mg/kg | 0.1 µg/mL (≈ 0.182 µM) | 0.1 µg/mL (≈ 0.182 µM) | 0.8 µg/mL (≈ 1.46 µM) | 0.1 µg/mL (≈ 0.182 µM) | 0.1 µg/mL (≈ 0.182 µM) | 0.4 µg/mL (≈ 0.729 µM) | – | – | –
15 | CC(C(N)=O)[N+]1(C/C=C/C2=C(C(=O)[O-])N3C(=O)[C@@H](NC(=O)/C(=N\OCF)c4nsc(N)n4)[C@H]3SC2)CCCC1 (single isomer, unassigned) [Example 13-1] | – | – | – | – | – | – | > 2000 mg/kg | ≤ 0.025 µg/mL | ≤ 0.025 µg/mL | 0.8 µg/mL (≈ 1.37 µM) | ≤ 0.025 µg/mL | ≤ 0.025 µg/mL | 0.2 µg/mL (≈ 0.343 µM) | – | – | –
16 | C[C@H](C(N)=O)[N+](C)(C)C/C=C/C1=C(C(=O)[O-])N2C(=O)[C@@H](NC(=O)/C(=N\OCF)c3nsc(N)n3)[C@H]2SC1 [Example 3-2, 7β-[2-(5-Amino-1,2,4-thiadiazol-3-yl)-(Z)-2-fluoromethoximinoacetamido]-3-[(E)-3-[(1R-carbamoylethyl)dimethylammonio]-1-propen-1-yl]-3-cephem-4-carboxylate] | – | – | – | – | – | – | > 2000 mg/kg | ≤ 0.025 µg/mL | ≤ 0.025 µg/mL | 1.56 µg/mL (≈ 2.8 µM) | ≤ 0.025 µg/mL | 0.1 µg/mL (≈ 0.18 µM) | 0.2 µg/mL (≈ 0.359 µM) | – | – | –
